Data published in patent US12215095B2, “Compounds for the treatment of respiratory diseases” (Tianli Biotech Pty Ltd, priority 2018, dated 2025).
Marks after values point to notes of the source that are not given here.

Key:
TGF-β-induced IL-11 = assay: Human parenchymal fibroblast cell assay: inhibition of TGF-β-induced IL-11 (ELISA); format: cell-based; conditions: primary human parenchymal fibroblasts, 100 pM TGF-β1, 16-24 hours, 4.00 is assigned to compounds that failed to cause 50% or more inhibition at 100 µM; for IC50: Fibroblast, read-out: pIC50 IL-11 suppression (converted)
Method: Primary human parenchymal fibroblast cells (pFbs) were cultured from parenchyma of lung resection specimens and from non-transplanted lungs of donors without chronic respiratory disease. pFbs were passaged in Dulbecco's Modified Eagle's Media (DMEM) containing 10% (v/v) heat-inactivated fetal calf serum (FCS), 15 mM HEPES, 0.2% (v/v) sodium bicarbonate, 2 mM L-glutamine, 1% (v/v) non-essential amino acids, 1% (v/v) sodium pyruvate, 2.5 μg/mL amphotericin, 5 IU/mL penicillin and 50 μg/mL streptomycin.
Prior to experimentation, pFb were incubated in serum-free DMEM containing 0.25% bovine serum albumin (BSA) and insulin-transferrin-selenium-containing supplement (Monomed A; CSL, Parkville, Melbourne, Australia). The cells were incubated with small molecular CK1δelta inhibitors (0.1-10 μM) for 30 min prior to 100 pM TGF-β1 (R&D Systems, Minneapolis, MN) and the incubation continued for 16-24 hours prior to harvest of supernatant for detection of immunoreactive IL-11. Stock solutions were made as 10 mM in 100% DMSO and diluted to the required concentration in medium containing 0.1% DMSO (final concentration).
Supernatants were collected for measurement of IL-11 (R&D DuoSet, DY218) by ELISA following the manufacturers' instructions. Generally, capture antibodies were initially diluted to the recommended concentrations using PBS buffer, and then used to coat the wells of 96-well microplates (Greiner, #655061) by adding 50 μL/well and incubated overnight at room temperature. Next day, solutions were discarded and wells were washed 3 times with wash buffer (PBS containing 0.1% (v/v) Tween-20) prior to the addition of 200 μL of blocking solution (PBS containing 1% (v/v) BSA) for 1 hour to block non-specific sites. Plates were then washed 3 times with wash buffer and 50 μL of samples or standards were then added to wells and incubated for 2 hours at room temperature. After the incubation, plates were washed 3 times with wash buffer and 50 μL of detection antibodies were added to wells and incubated for 2 hours at room temperature. Plates were then washed 3 times before adding streptavidin-conjugated horseradish peroxidase (at the recommended concentrations) for 45 min. Plates were then washed 5 times with wash buffer and 100 μL TMB substrate solution (equal parts A and B, BD Biosciences) was added to each well until sufficient signals emerged. The reactions were inactivated by adding 100 μL sulphuric acid (2M H2SO4). The absorbance was measured at 450 nm using the Multiskan Ascent® plate reader. The absorbance of the cytokine standards was fitted to a logistic equation, allowing the concentrations of cytokine in samples to be determined.
pIC50 values (the negative log of the concentration suppressing IL-11 level by 50%) for inhibition of TGF-β-induced IL-11 were interpolated from the linear regression of log concentration small molecule versus IL-11 level (Table 4 and FIG. 2).

casein kinase 1δ = casein kinase 1δ (Homo sapiens (Human), UniProt P48730); assay: Kinase inhibition assay (HotSpot assay, Reaction Biology Corp); format: biochemical; conditions: 10 μM ATP, 10-dose IC50 mode, 3-fold serial dilution starting at 10 μM; for pIC50: casein kinase 1δ; for IC50: read-out: CK1δ IC50
Chain of casein kinase 1δ (P48730 whole entry): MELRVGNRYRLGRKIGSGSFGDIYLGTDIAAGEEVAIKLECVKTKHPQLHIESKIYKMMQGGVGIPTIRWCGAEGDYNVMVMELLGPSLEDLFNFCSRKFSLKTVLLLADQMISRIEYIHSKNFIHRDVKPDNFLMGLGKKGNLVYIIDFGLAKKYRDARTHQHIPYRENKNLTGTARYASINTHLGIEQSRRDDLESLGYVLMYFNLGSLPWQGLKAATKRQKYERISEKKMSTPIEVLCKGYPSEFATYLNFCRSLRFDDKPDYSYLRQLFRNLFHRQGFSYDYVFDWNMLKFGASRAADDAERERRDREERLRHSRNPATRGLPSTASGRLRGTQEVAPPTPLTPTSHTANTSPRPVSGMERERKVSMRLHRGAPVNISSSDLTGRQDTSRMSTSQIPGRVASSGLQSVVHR

pIC50 (casein kinase 1δ)	IC50 (casein kinase 1δ) [nM]	Compound	pIC50 IL-11 suppression (TGF-β-induced IL-11)	IC50 (TGF-β-induced IL-11) [nM]
7.42		CC(C)(F)n1cnc(-c2ccc(F)cc2)c1-c1ccnc(NCC2CCC(F)(F)CC2)n1 [ZH2-62]	< 4.00*	
	5.07	FCn1cnc(-c2ccc(F)cc2)c1-c1ccnc(NCCCc2ccccc2)n1 [ZH2-122]		
8.71	1.93	Fc1ccc(-c2ncn(C3CCCCC3)c2-c2ccnc(NCc3ccccn3)n2)cc1 [ZH2-130, 4-(1-Cyclohexyl-4-(4-fluorophenyl)-1H-imidazol-5-yl)-N-(pyridin-2-ylmethyl)pyrimidin-2-amine(2-picolyl)]		724
8.53	2.97	Fc1ccc(-c2ncn(C3CCCCC3)c2-c2ccnc(NCC3CCC(F)(F)CC3)n2)cc1 [ZH3-74, 4-(1-Cyclohexyl-4-(4-fluorophenyl)-1H-imidazol-5-yl)-N-((4,4-difluorocyclohexyl)methyl)pyrimidin-2-amine]		6760

Further lines, the compound ahead of its results:

Compound	pIC50 (casein kinase 1δ)	IC50 (casein kinase 1δ) [nM]	pIC50 IL-11 suppression (TGF-β-induced IL-11)	IC50 (TGF-β-induced IL-11) [nM]
Fc1ccc(-c2ncn(C3CCCCC3)c2-c2ccnc(NCc3ccc(-c4ccccc4)cc3)n2)cc1 [ZH2-66, N-([1,1′-Biphenyl]-4-ylmethyl)-4-(1-cyclohexyl-4-(4-fluorophenyl)-1H-imidazol-5-yl)pyrimidin-2-amine]	5.86			> 100000
Fc1ccc(-c2ncn(C3CCCCC3)c2-c2ccnc(NCC3CCCC3)n2)cc1 [ZH2-86, 4-(1-Cyclohexyl-4-(4-fluorophenyl)-1H-imidazol-5-yl)-N-(cyclopentylmethyl)pyrimidin-2-amine]	8.15	7.16		1910
Fc1ccc(-c2ncn(C3CCCCC3)c2-c2ccnc(NCC3CCCCC3)n2)cc1 [ZH2-98, 4-(1-Cyclohexyl-4-(4-fluorophenyl)-1H-imidazol-5-yl)-N-(cyclohexylmethyl)pyrimidin-2-amine]	7.91	12.6		1780
Fc1ccc(-c2ncn(C3CCCCC3)c2-c2ccnc(NCC3CCOCC3)n2)cc1 [ZH2-102, 4-(1-Cyclohexyl-4-(4-fluorophenyl)-1H-imidazol-5-yl)-N-((tetrahydro-2H-pyran-4-yl)methyl)pyrimidin-2-amine]	8.77	1.7		407
C[C@H](Nc1nccc(-c2c(-c3ccc(F)cc3)ncn2C2CCCCC2)n1)C1CCCCC1 [ZH3-90, (S)-4-(1-Cyclohexyl-4-(4-fluorophenyl)-1H-imidazol-5-yl)-N-(1-cyclohexylethyl)pyrimidin-2-amine]	6.57			> 100000
C[C@@H](Nc1nccc(-c2c(-c3ccc(F)cc3)ncn2C2CCCCC2)n1)C1CCCCC1 [ZH3-94, (R)-4-(1-Cyclohexyl-4-(4-fluorophenyl)-1H-imidazol-5-yl)-N-(1-cyclohexylethyl)pyrimidin-2-amine]	7.46	34.4		912
Fc1ccc(-c2ncn(C3CCCCC3)c2-c2ccnc(NCCCc3ccccc3)n2)cc1 [ZH3-98, 4-(1-Cyclohexyl-4-(4-fluorophenyl)-1H-imidazol-5-yl)-N-(3-phenylpropyl)pyrimidin-2-amine]	8.59	2.54		2000
